The source of these data is the supplement of paper PMC12137928.

Structures can show the parent of a compound that is named as a salt. Some results are limits rather than exact numbers.

The assay concerns HCT116. To be noted: 72 h. Put shortly: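 HCT116 cells were seeded at 250 per well in 1536-well plates with 5 h allowed for attachment. CellTiter-Glo luminescence was normalized against vehicle (0%) and positive control (-100%) before pattern correction. The IC50 and maximal efficacy figures derive from four-parameter Hill fits.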

Consider `CC(=O)N[C@H](Cc1ccc2ccccc2c1)C(=O)N[C@H](Cc1ccc(Cl)cc1)C(=O)N[C@H](Cc1cccnc1)C(=O)N[C@@H](CO)C(=O)N[C@@H](Cc1ccc(O)cc1)C(=O)N[C@H](CCCNC(N)=O)C(=O)N[C@@H](CC(C)C)C(=O)N[C@@H](CCCNC(=N)N)C(=O)N1CCC[C@H]1C(=O)N[C@H](C)C(N)=O` [Cetrorelix], for which the IC50 cell viability (ICRF193 0 nM) is > 45.8 µM and the IC50 cell viability (ICRF193 200 nM) is > 45.8 µM.

With `CNC(=O)c1c(I)c(C(=O)NCC(=O)Nc2c(I)c(C(=O)O)c(I)c(C(=O)NCCO)c2I)c(I)c(N(C)C(C)=O)c1I` [Ioxaglic Acid], the IC50 cell viability is, setting by setting: (ICRF193 0 nM) > 45.8 µM; (ICRF193 200 nM) > 45.8 µM.

As for `NC(CO)(CO)CO` [Tromethamine], the IC50 cell viability was > 45.8 µM (ICRF193 0 nM) and > 45.8 µM (ICRF193 200 nM).

Consider `CC1(C)[C@@H]2CC[C@@]1(C)[C@H](OC(=O)CSC#N)C2` [Thanite], for which the IC50 cell viability is, setting by setting: (ICRF193 0 nM) > 45.8 µM; (ICRF193 200 nM) > 45.8 µM.

Consider `Cl.Cl.c1ccc(CNCCNCc2ccccc2)cc1` [N,N'-Dibenzylethane-1,2-diamine dihydrochloride], for which the IC50 cell viability runs as follows: (ICRF193 0 nM) > 45.8 µM; (ICRF193 200 nM) > 45.8 µM.

As to `OC(c1ccccc1)(c1ccccc1)C12CC[N+](CCOCc3ccccc3)(CC1)CC2` [Umeclidinium bromide], the IC50 cell viability was > 45.8 µM (ICRF193 0 nM) and > 45.8 µM (ICRF193 200 nM).

Consider `O=C(Oc1ccccc1)c1ccccc1O` [Phenyl salicylate], for which the IC50 cell viability by setting is: (ICRF193 0 nM) > 45.8 µM; (ICRF193 200 nM) > 45.8 µM.

With `CN1C[C@@H]2C[C@H]1CN2c1cc2c(cc1F)c(=O)c(C(=O)O)cn2C1CC1` [Danofloxacin], the IC50 cell viability was > 45.8 µM (ICRF193 0 nM) and > 45.8 µM (ICRF193 200 nM).

Regarding `COc1cnc(NS(=O)(=O)c2ccc(N)cc2)nc1` [Sulfameter], the IC50 cell viability by setting is: (ICRF193 0 nM) > 45.8 µM; (ICRF193 200 nM) > 45.8 µM.

Consider `c1ccc2scnc2c1` [Benzothiazole], for which the IC50 cell viability by setting is: (ICRF193 0 nM) > 45.8 µM; (ICRF193 200 nM) > 45.8 µM.

`O=[N+]([O-])c1ccc(/C=N/O)o1` [Nifuroxime]: the IC50 cell viability was > 45.8 µM (ICRF193 0 nM) and > 45.8 µM (ICRF193 200 nM).

Take `CN[C@@H]1[C@@H](O[C@H]2O[C@H](CO)[C@@H](N)[C@H](O)[C@H]2O)OC2C[C@@H](N)[C@@H](O[C@H]3[C@H](O)[C@@H](O)[C@H](N)C[C@@H]3N)OC2[C@@H]1O` (some centres not stated) [APRAMYCIN SULFATE]: the IC50 cell viability reads like this: (ICRF193 0 nM) > 45.8 µM; (ICRF193 200 nM) > 45.8 µM.

Consider `CC[C@@H]1CCN[C@H](C(=O)N[C@@H]([C@H]2O[C@H](SC)[C@H](O)[C@@H](O)[C@H]2O)[C@H](C)Cl)C1` [Pirlimycin Hydrochloride], for which the IC50 cell viability (ICRF193 0 nM) was > 45.8 µM and the IC50 cell viability (ICRF193 200 nM) was > 45.8 µM.

For `CCN(CC)CC(=O)Nc1c(C)cccc1C` [Lidocaine], the IC50 cell viability was > 45.8 µM (ICRF193 0 nM) and > 45.8 µM (ICRF193 200 nM).

Turning to `CCOC(=O)CN[C@@H](C(=O)N1CC[C@H]1C(=O)NCc1ccc(/C(N)=N\O)cc1)C1CCCCC1` [Ximelagatran], the IC50 cell viability runs as follows: (ICRF193 0 nM) > 45.8 µM; (ICRF193 200 nM) > 45.8 µM.

Take `CCn1cc(C(=O)O)c(=O)c2cnc(N3CCCC3)nc21` [Piromidic acid]: the IC50 cell viability was > 45.8 µM (ICRF193 0 nM) and > 45.8 µM (ICRF193 200 nM).

For the molecule `CC(C)NCC(O)COc1cccc2[nH]ccc12` (configuration not stated) [Pindolol], the IC50 cell viability by setting is: (ICRF193 0 nM) > 45.8 µM; (ICRF193 200 nM) > 45.8 µM.

As for `O=C1OC(c2ccc(O)c(S(=O)(=O)O)c2)(c2ccc(O)c(S(=O)(=O)O)c2)c2c(Br)c(Br)c(Br)c(Br)c21` [Sulfobromophthalein], the IC50 cell viability by setting is: (ICRF193 0 nM) > 45.8 µM; (ICRF193 200 nM) > 45.8 µM.

For the molecule `CCOC(=O)[C@H](CCc1ccccc1)N[C@H]1CS[C@H](c2cccs2)CN(CC(=O)O)C1=O` [Temocapril hydrochloride], the IC50 cell viability (ICRF193 0 nM) was > 45.8 µM and the IC50 cell viability (ICRF193 200 nM) was > 45.8 µM.

Regarding `C=C1/C(=C\C=C2/CCC[C@]3(C)[C@@H]([C@H](C)/C=C/C=C/C(O)(CC)CC)CC[C@@H]23)C[C@@H](O)C[C@@H]1O` [Seocalcitol], the IC50 cell viability is, setting by setting: (ICRF193 0 nM) > 45.8 µM; (ICRF193 200 nM) > 45.8 µM.

Consider `CC(C)(C#N)c1cc(Cn2cncn2)cc(C(C)(C)C#N)c1` [Anastrozole], for which the IC50 cell viability by setting is: (ICRF193 0 nM) > 45.8 µM; (ICRF193 200 nM) > 45.8 µM.

On to `NC(=O)c1nc(F)cnc1O` [Favipiravir], for which the IC50 cell viability was > 45.8 µM (ICRF193 0 nM) and > 45.8 µM (ICRF193 200 nM).

As to `Cc1cc(C)nc(NS(=O)(=O)c2ccc(N)cc2)n1` [Sulfamethazine], the IC50 cell viability reads like this: (ICRF193 0 nM) > 45.8 µM; (ICRF193 200 nM) > 45.8 µM.

In the case of `CCCNC(C)(C)COC(=O)c1ccccc1` [Meprylcaine hydrochloride], the IC50 cell viability (ICRF193 0 nM) was > 45.8 µM and the IC50 cell viability (ICRF193 200 nM) was > 45.8 µM.

Take `CC(C)Oc1ccc2c(=O)c(-c3ccccc3)coc2c1` [Ipriflavone]: the IC50 cell viability was > 45.8 µM (ICRF193 0 nM) and > 45.8 µM (ICRF193 200 nM).

In the case of `CCCCCC/C=C\CCCCCCCC(=O)O` [9(Z)-Hexadecenoic acid], the IC50 cell viability was > 45.8 µM (ICRF193 0 nM) and > 45.8 µM (ICRF193 200 nM).

With `CCOC(=O)n1ccn(C)c1=S` [Carbimazole], the IC50 cell viability reads like this: (ICRF193 0 nM) > 45.8 µM; (ICRF193 200 nM) > 45.8 µM.

Consider `COc1ccc(CCNCC(O)COc2cccc(C)c2)cc1OC` (configuration not stated) [Bevantolol hydrochloride], for which the IC50 cell viability by setting is: (ICRF193 0 nM) > 45.8 µM; (ICRF193 200 nM) > 45.8 µM.

In the case of `CCN1C[C@]2(COC)[C@H](O)C[C@H](OC)[C@@]34[C@@H]5C[C@@]6(O)[C@H](OC(=O)c7ccccc7)[C@@H]5[C@@](OC(C)=O)([C@@H]([C@H](OC)[C@H]23)[C@@H]14)[C@@H](O)[C@@H]6OC` [Aconitine], the IC50 cell viability is, setting by setting: (ICRF193 0 nM) > 45.8 µM; (ICRF193 200 nM) > 45.8 µM.

Take `Cc1c(OCC(F)(F)F)ccnc1C[S@@+]([O-])c1nc2ccccc2[nH]1` [(R)-Lansoprazole]: the IC50 cell viability runs as follows: (ICRF193 0 nM) > 45.8 µM; (ICRF193 200 nM) > 45.8 µM.

Regarding `C[C@]12CCC(=O)C=C1CC[C@H]1[C@@H]3CC[C@](O)(C(=O)CO)[C@@]3(C)C[C@H](O)[C@@]12F` [Fludrocortisone], the IC50 cell viability is > 45.8 µM (ICRF193 0 nM) and > 45.8 µM (ICRF193 200 nM).

In the case of `N[C@H](C(=O)O)[C@H](O)c1ccc(O)c(O)c1` [Droxidopa], the IC50 cell viability by setting is: (ICRF193 0 nM) > 45.8 µM; (ICRF193 200 nM) > 45.8 µM.

In the case of `O=c1[nH]c(=O)n([C@H]2C[C@H](O)[C@@H](CO)O2)cc1I` [Idoxuridine], the IC50 cell viability by setting is: (ICRF193 0 nM) > 45.8 µM; (ICRF193 200 nM) > 45.8 µM.

Consider `C[C@@H](CN1CC(=O)NC(=O)C1)N1CC(=O)NC(=O)C1` [Dexrazoxane hydrochloride], for which the IC50 cell viability (ICRF193 0 nM) was > 45.8 µM and the IC50 cell viability (ICRF193 200 nM) is > 45.8 µM.

For the molecule `CCC(=O)OCC(=O)[C@@]1(OC(=O)CC)[C@@H](C)C[C@H]2[C@@H]3CCC4=CC(=O)C=C[C@]4(C)[C@@]3(F)[C@@H](O)C[C@@]21C` [BETAMETHASONE 17,21-DIPROPIONATE], the IC50 cell viability was > 45.8 µM (ICRF193 0 nM) and > 45.8 µM (ICRF193 200 nM).

As for `CCC(=O)O[C@@](Cc1ccccc1)(c1ccccc1)[C@@H](C)CN(C)C` [Levopropoxyphene napsylate], the IC50 cell viability runs as follows: (ICRF193 0 nM) > 45.8 µM; (ICRF193 200 nM) > 45.8 µM.

Regarding `CN(C)CCC=C1c2ccccc2COc2ccccc21` [Doxepin hydrochloride], the IC50 cell viability (ICRF193 0 nM) was > 45.8 µM and the IC50 cell viability (ICRF193 200 nM) was > 45.8 µM.

Consider `O=C(O)/C=C/c1ccccc1` [CINNAMIC ACID], for which the IC50 cell viability by setting is: (ICRF193 0 nM) > 45.8 µM; (ICRF193 200 nM) > 45.8 µM.

Take `CCCn1cnc2c1c(=O)n(CCCCC(C)=O)c(=O)n2C` [Propentofylline]: the IC50 cell viability runs as follows: (ICRF193 0 nM) > 45.8 µM; (ICRF193 200 nM) > 45.8 µM.

On to `O=C1CN2CCOC2(c2ccccc2Cl)c2cc(Cl)ccc2N1` (configuration not stated) [Cloxazolam], for which the IC50 cell viability runs as follows: (ICRF193 0 nM) > 45.8 µM; (ICRF193 200 nM) > 45.8 µM.

Consider `CC1=C(/C=C/C(C)=C/C=C/C(C)=C/C(=O)Oc2c(C)c(C)c3c(c2C)CCC(C)(CCCC(C)CCCC(C)CCCC(C)C)O3)C(C)(C)CCC1` (configuration not stated) [Tocoretinate], for which the IC50 cell viability was > 45.8 µM (ICRF193 0 nM) and > 45.8 µM (ICRF193 200 nM).

In the case of `Oc1ccc2c3c1O[C@H]1[C@@H](O)CC[C@@]4(O)[C@@H](C2)N(CC2CCC2)CC[C@]314` [Nalbuphine hydrochloride], the IC50 cell viability runs as follows: (ICRF193 0 nM) > 45.8 µM; (ICRF193 200 nM) > 45.8 µM.

For the molecule `CC(=O)c1ccc2c(c1)N(CCCN1CCN(CCO)CC1)c1ccccc1S2` [Acetophenazine Maleate], the IC50 cell viability (ICRF193 0 nM) is > 45.8 µM and the IC50 cell viability (ICRF193 200 nM) is > 45.8 µM.

Consider `OCCOCCN1CCN(C(c2ccccc2)c2ccc(Cl)cc2)CC1` (configuration not stated) [Hydroxyzine], for which the IC50 cell viability reads like this: (ICRF193 0 nM) > 45.8 µM; (ICRF193 200 nM) > 45.8 µM.

Consider `C[C@@H]1O[C@@H](OC[C@H]2O[C@@H](Oc3c(-c4ccc(O)c(O)c4)oc4cc(O)cc(O)c4c3=O)[C@H](O)[C@@H](O)[C@@H]2O)[C@H](O)[C@H](O)[C@H]1O` [Rutin trihydrate], for which the IC50 cell viability (ICRF193 0 nM) was > 45.8 µM and the IC50 cell viability (ICRF193 200 nM) is > 45.8 µM.

Regarding `CCCCc1cc2c(=O)c(C(=O)OC)c[nH]c2cc1OCc1ccccc1` [Nequinate], the IC50 cell viability runs as follows: (ICRF193 0 nM) > 45.8 µM; (ICRF193 200 nM) > 45.8 µM.

On to `C/C=C1\[C@H]2C=C(C)C[C@]1(N)c1ccc(=O)[nH]c1C2` [Huperzine A], for which the IC50 cell viability reads like this: (ICRF193 0 nM) > 45.8 µM; (ICRF193 200 nM) > 45.8 µM.

In the case of `Oc1ncnc2[nH]ncc12` [Allopurinol], the IC50 cell viability is, setting by setting: (ICRF193 0 nM) > 45.8 µM; (ICRF193 200 nM) > 45.8 µM.

For `CC#CCn1c(N2CCC[C@@H](N)C2)nc2c1c(=O)n(Cc1nc(C)c3ccccc3n1)c(=O)n2C` [Linagliptin], the IC50 cell viability runs as follows: (ICRF193 0 nM) > 45.8 µM; (ICRF193 200 nM) > 45.8 µM.

Regarding `CCCN1C[C@H](CSC)C[C@@H]2c3cccc4[nH]cc(c34)C[C@H]21` [Pergolide methanesulfonate], the IC50 cell viability is, setting by setting: (ICRF193 0 nM) > 45.8 µM; (ICRF193 200 nM) > 45.8 µM.

For `CC(C)[C@H](N)C(=O)OCCOCn1cnc2c(=O)nc(N)[nH]c21` [Valaciclovir], the IC50 cell viability was > 45.8 µM (ICRF193 0 nM) and > 45.8 µM (ICRF193 200 nM).
